# Data reported in publication PMC9894841, “Characterisation of a cyclic peptide that binds to the RAS binding domain of phosphoinositide 3-kinase p110α” (Scientific Reports, 2023).
# “And” between values parts separate entries of the source, which are not always exact repeats. Identical values can stand only once. “Also recorded” adds a separate entry of the source. Residues, ends and D or L forms follow the SMILES beside them.
# Legend:
# p110α (p110α/p85α) = p110α (p110α/p85α) (Homo sapiens, UniProt P42336); assay: Microscale thermophoresis (MST) binding to labelled p110α/p85α; conditions: for Kd: labelled protein 100 nM, 25 °C; for increase in affinity for p110α over cyclo-CRVLAA: MST
# p110α (p110α/p85α), sequence (P42336 whole entry, species assumed): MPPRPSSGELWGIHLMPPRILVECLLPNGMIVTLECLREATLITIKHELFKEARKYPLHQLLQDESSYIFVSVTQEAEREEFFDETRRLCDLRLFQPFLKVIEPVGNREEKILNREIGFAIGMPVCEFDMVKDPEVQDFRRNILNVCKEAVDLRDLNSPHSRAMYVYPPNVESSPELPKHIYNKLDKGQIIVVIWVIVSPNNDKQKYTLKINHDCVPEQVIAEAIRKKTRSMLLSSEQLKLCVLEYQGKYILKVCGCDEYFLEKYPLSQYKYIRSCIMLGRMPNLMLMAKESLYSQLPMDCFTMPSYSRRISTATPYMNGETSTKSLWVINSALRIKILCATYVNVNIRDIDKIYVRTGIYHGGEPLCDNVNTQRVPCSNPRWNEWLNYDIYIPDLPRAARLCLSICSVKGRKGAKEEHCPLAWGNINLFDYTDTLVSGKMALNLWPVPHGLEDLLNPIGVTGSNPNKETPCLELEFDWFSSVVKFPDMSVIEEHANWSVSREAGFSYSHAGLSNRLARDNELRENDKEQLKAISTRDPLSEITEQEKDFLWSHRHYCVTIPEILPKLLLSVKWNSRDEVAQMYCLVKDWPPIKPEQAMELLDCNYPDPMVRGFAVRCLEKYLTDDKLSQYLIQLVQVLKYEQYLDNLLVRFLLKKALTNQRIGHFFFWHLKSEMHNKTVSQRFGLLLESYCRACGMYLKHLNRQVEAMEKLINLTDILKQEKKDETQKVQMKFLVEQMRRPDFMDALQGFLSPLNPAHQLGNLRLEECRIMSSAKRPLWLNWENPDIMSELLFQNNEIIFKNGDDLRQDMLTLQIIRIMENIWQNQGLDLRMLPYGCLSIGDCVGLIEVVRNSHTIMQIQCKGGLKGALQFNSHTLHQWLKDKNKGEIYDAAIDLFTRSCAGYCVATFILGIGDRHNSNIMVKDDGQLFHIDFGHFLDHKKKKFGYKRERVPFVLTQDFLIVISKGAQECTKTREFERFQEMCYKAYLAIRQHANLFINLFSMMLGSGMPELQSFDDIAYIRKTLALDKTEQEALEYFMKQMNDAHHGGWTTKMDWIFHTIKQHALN
# p110α (p110α/p85α), sequence (P27986 whole entry partner, species assumed): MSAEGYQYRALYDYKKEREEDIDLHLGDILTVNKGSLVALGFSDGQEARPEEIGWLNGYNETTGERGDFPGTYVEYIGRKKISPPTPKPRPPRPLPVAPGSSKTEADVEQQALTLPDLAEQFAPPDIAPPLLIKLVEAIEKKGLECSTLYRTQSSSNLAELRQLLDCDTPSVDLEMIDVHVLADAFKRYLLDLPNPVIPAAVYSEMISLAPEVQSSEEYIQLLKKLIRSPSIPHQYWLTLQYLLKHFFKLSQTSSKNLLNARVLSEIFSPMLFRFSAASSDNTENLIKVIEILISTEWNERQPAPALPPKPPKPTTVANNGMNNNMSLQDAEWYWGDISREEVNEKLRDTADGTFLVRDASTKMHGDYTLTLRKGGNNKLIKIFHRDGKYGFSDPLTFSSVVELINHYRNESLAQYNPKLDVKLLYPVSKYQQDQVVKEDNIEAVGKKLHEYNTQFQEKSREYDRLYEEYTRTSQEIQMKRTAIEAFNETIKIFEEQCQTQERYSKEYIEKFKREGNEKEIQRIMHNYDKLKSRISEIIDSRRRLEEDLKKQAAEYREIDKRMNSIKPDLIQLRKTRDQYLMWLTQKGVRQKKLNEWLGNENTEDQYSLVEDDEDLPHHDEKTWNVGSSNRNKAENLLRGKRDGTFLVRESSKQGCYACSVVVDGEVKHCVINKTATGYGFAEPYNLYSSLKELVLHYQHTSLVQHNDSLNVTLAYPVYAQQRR
# GST-RBDα/KRAS = biological target: T1, GST-RBDα/KRAS (Homo sapiens, UniProt P42336); assay: GST-RBDα/KRAS reverse two-hybrid system (RTHS), SICLOPPS screen; format: cell-based, E. coli; conditions: arabinose induced expression of the cyclic peptide
# T1 construct: we created a fusion of the RBD (amino acids 133 – 314) with GST; expressed in transfected cells; host or cells: E. coli strain SNS126 (cassette integrated via pAH68)
# T1 sequence (P42336 133-314): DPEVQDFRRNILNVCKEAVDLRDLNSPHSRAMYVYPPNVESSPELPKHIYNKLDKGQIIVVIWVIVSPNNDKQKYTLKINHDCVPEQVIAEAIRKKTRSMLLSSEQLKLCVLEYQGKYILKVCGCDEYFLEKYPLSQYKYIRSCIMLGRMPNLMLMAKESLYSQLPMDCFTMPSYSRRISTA
# Text: The SICLOPPS technique as previously published is based on two steps: first, building a reverse two-hybrid system (RTHS) that expresses the target protein complex in bacteria as a screening platform and second, the production of a genetically encoded cyclic peptide library[25]–[29]. […] Also, the expression of the full length p110α needs to be in association with the regulatory subunit p85α in order to achieve a stable protein dimer, which makes it a large and complex protein to express in bacteria. In a successful RTHS system, the engineered bacterial cell line should show a reduction of growth on selective media upon induction of expression of the target protein complex with increasing isopropyl β-d-1-thiogalactopyranoside (IPTG)[27]–[29]. […] We hypothesised that this could be due to a lack of solubility of RBDα, a previously described feature of the RBDs of p110 proteins. Therefore, we designed another RTHS carrying a GST fusion tag at the N-terminus of the RBDα (GST-RBDα/KRAS RTHS).
# We used the GST-RBDα/KRAS RTHS to screen a CXXXXX (where X is any of the 20 canonical amino acids) SICLOPPS plasmid library of 3.2 million genetically encoded cyclic hexapeptides. The cyclic peptides contain an invariant cysteine and five other amino acids that are each equally distributed between the twenty possibilities. Thus, each SICLOPPS plasmid contains a different sequence representing a unique peptide.
# Due to the lack of solubility of the p110α-RBD we created a fusion of the RBD (amino acids 133 – 314) with GST (Glutathione S-transferase) by PCR amplification, to produce a recombinant protein of GST-RBD (hereafter RBD). Both KRAS (amino acids 1–168—lacking the Hyper Variable Region) and the RBD were cloned into the pTHCP14 vector that contains two bacteriophage repressors P22 and 434, producing a cassette that consists of two fusion proteins—KRAS with 434 and RBD with P22. This cassette was then sub-cloned into the CRIM integration plasmid pAH68—for integration into E. coli strain SNS126 that contains the chimeric P22 and 434 operators. When expressed, the interaction of KRAS with the RBD brings together the P22 and the 434 repressors to form a dimer that will interact with the chimeric P22 and 434 operators—resulting in no growth on selective media.
# The SICLOPPS library was generated by PCR amplification using degenerate primers encoding cyclo-CXXXXX hexapeptides (where X is any amino acid), producing around 3.2 million compounds. The SICLOPPS RTHS formation, cyclic peptide production and library screening were followed as described[24],[25],[46].
# [1] = Solubility of the peptides (in words); format: physicochemical
# CRAF-RBD = CRAF-RBD (Homo sapiens, UniProt P04049); assay: MST binding to CRAF-RBD
# CRAF-RBD, sequence (P04049 56-131 limits assumed): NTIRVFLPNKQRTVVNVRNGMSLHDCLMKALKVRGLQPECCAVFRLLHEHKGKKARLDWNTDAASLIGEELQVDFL
# Protocol: Measurements were performed using a NanoTemper Monolith™ NT.115 instrument (NanoTemper Technologies GmbH, München, Germany). […] Labelling levels (generally in the range 0.3–0.4 dye molecules per protein molecule) were determined using calculated extinction coefficients for the protein and ε647 = 250,000 M^−1 cm^−1 (or ε495 = 70,000 M^−1 cm^−1) for the dye concentration. In a typical experiment 20 ml aliquots of a 100 nM stock solution of labelled protein were mixed with 20 ml aliquots of a serial dilution of binding partner. These solutions were then loaded into standard treated capillaries and MST measurements were performed at 25 °C using 20–40% LED power and 40–60% IR-Laser power. The laser Laser-On time was 30 s and Laser-Off time 5 s. All measurements were performed at least five times.
# H1792 cells = assay: Western blot of phospho-AKT / phospho-ERK in H1792 cells; format: cell-based, human; conditions: RPMI 1640 10% FCS, 2, 10 and 50 µM (also 4, 20 and 100 µM), 4 h
# Protocol: We treated the human lung cancer cell line H1792, growing at steady-state in Roswell Park Memorial Institute (RPMI) 1640 media with 10% Foetal Calf Serum (FCS), with the seven cyclic peptides at three different concentrations (2, 10 and 50 µM) for 4 h. After treatment we measured the effect of the peptides on the phosphorylation levels of AKT (pAKT-Ser473), a key downstream effector of p110α activity. […] In contrast, the phosphorylation levels of ERK (p-ERK), which is a downstream effector of the RAS/RAF/MEK/ERK pathway and is independent of p110α activity, were not affected.
# The next day, 1 ml of medium was removed and the cells were treated with different peptide concentrations for 4 h. All peptides were dissolved in 25 mM Tris pH8, 100 mM NaCl and 1 mM TCEP. Cells were then harvested and lysed for SDS-PAGE and western blot analysis. Anti-calnexin antibody was obtained from Abcam. Antibodies directed against phospho-T202/Y204-ERK, ERK, phospho-S473-AKT and AKT were obtained from Cell Signaling. After western blotting, calnexin, AKT and phospho-AKT signals were quantified using ImageJ and statistical tests were done using Prism software.
Kd (p110α (p110α/p85α)),Molecule,regrowth of the GST-RBDα/KRAS RTHS on selective media with IPTG (GST-RBDα/KRAS),also measured
≥ 817 µM,"CC(C)C[C@@H]1NC(=O)[C@H](C(C)C)NC(=O)[C@H](CCCNC(=N)N)NC(=O)[C@H](CS)NC(=O)[C@H](CCC(=O)O)NC(=O)[C@H](C)NC1=O [CRVLAE, Cyclo-CRVLAE] (cyclo(CRVLAE))",,
≥ 476 µM,"CC(C)C[C@@H]1NC(=O)[C@H](C(C)C)NC(=O)[C@H](CCCNC(=N)N)NC(=O)[C@H](CS)NC(=O)[C@H](C)NC(=O)[C@H](CC(=O)O)NC1=O [CRVLDA, Cyclo-CRVLDA] (cyclo(CRVLDA))",,
≥ 1210 µM,"CC(C)C[C@@H]1NC(=O)[C@H](C(C)C)NC(=O)[C@H](CCCNC(=N)N)NC(=O)[C@H](CS)NC(=O)[C@H](C)NC(=O)[C@H](CCC(=O)O)NC1=O [CRVLEA, Cyclo-CRVLEA] (cyclo(CRVLEA))",,
≥ 140 µM,"CC(C)C[C@@H]1NC(=O)[C@H](C(C)C)NC(=O)[C@H](CCCNC(=N)N)NC(=O)[C@H](CS)NC(=O)[C@H](C)NC(=O)[C@H](CCCNC(=N)N)NC1=O [CRVLRA, Cyclo-CRVLRA] (cyclo(CRVLRA))",,
,"CC(C)C[C@@H]1NC(=O)[C@H](CCCCN)NC(=O)[C@H](CS)NC(=O)[C@H](CC(C)C)NC(=O)[C@H](C(C)C)NC(=O)[C@H](C(C)C)NC1=O [cyclo-CKLVVL, Cyclo-CKLVVL] (cyclo(CKLVVL))",regrowth,
,"CC(C)C[C@@H]1NC(=O)[C@H](CS)NC(=O)[C@H](Cc2ccc(O)cc2)NC(=O)[C@H](Cc2c[nH]c3ccccc23)NC(=O)[C@H](Cc2c[nH]c3ccccc23)NC(=O)[C@H](C(C)C)NC1=O [cyclo-CLVWWY, Cyclo-CLVWWY] (cyclo(CLVWWY))",regrowth,
,"CC(C)C[C@@H]1NC(=O)[C@H](CS)NC(=O)[C@H](Cc2c[nH]c3ccccc23)NC(=O)[C@H](Cc2c[nH]c3ccccc23)NC(=O)[C@H](Cc2ccc(O)cc2)NC(=O)[C@H](Cc2c[nH]c3ccccc23)NC1=O [cyclo-CLWYWW, Cyclo-CLWYWW] (cyclo(CLWYWW))",regrowth,
,"CSCC[C@@H]1NC(=O)[C@H](CS)NC(=O)[C@H](CCCNC(=N)N)NC(=O)CNC(=O)CNC(=O)[C@H](CO)NC1=O [cyclo-CMSGGR, Cyclo-CMSGGR] (cyclo(CMSGGR))",regrowth,
,"CC[C@H](C)[C@@H]1NC(=O)[C@H](CCCNC(=N)N)NC(=O)[C@H](CS)NC(=O)[C@H]([C@@H](C)CC)NC(=O)[C@H](C(C)C)NC(=O)[C@H](C(C)C)NC1=O [cyclo-CRIVVI, Cyclo-CRIVVI] (cyclo(CRIVVI))",regrowth,
≥ 360 µM and ~360 µM,"CC(C)C[C@@H]1NC(=O)[C@H](C(C)C)NC(=O)[C@H](CCCNC(=N)N)NC(=O)[C@H](CS)NC(=O)[C@H](C)NC(=O)[C@H](C)NC1=O [cyclo-CRVLAA, Cyclo-CRVLAA]",,"binding to p110α in words, MST (p110α (p110α/p85α)): weak binding; also recorded: interacted weakly; solubility in words [1]: most soluble of these"
11.8 ± 1.75 µM,"CC(C)C[C@@H]1NC(=O)[C@H](C(C)C)NC(=O)[C@H](CCCNC(=N)N)NC(=O)[C@H](CS)NC(=O)[C@H](CC(=O)O)NC(=O)[C@H](C)NC1=O [cyclo-CRVLAD, Cyclo-CRVLAD]",,"increase in affinity for p110α over cyclo-CRVLAA (p110α (p110α/p85α)): 30 fold; binding to CRAF-RBD in words, MST (CRAF-RBD): does not interact; also recorded: did not produce a positive signal of interaction"
,"CC(C)C[C@@H]1NC(=O)[C@H](C(C)C)NC(=O)[C@H](CCCNC(=N)N)NC(=O)[C@H](CS)NC(=O)[C@H](CCCNC(=N)N)NC(=O)[C@H](C)NC1=O [cyclo-CRVLAR, Cyclo-CRVLAR] (cyclo(ARCRVL))",,increase in affinity for p110α over cyclo-CRVLAA (p110α (p110α/p85α)): tenfold
,"CC(C)C[C@@H]1NC(=O)[C@H](C(C)C)NC(=O)[C@H](CCCNC(=N)N)NC(=O)[C@H](CS)NC(=O)[C@H](CCCNC(=N)N)NC(=O)[C@H]([C@@H](C)O)NC1=O [cyclo-CRVLTR, Cyclo-CRVLTR] (cyclo(CRVLTR))",,effect on phospho-AKT (pAKT-Ser473) levels (H1792 cells): mild effect
,"CC[C@H](C)[C@@H]1NC(=O)[C@H](C(C)C)NC(=O)[C@H](CS)NC(=O)[C@H](C(C)C)NC(=O)[C@H](C(C)C)NC(=O)[C@H](CC(C)C)NC1=O [cyclo-CVILVV, Cyclo--CVILVV] (cyclo(CVILVV))",regrowth,
,"CC(C)C[C@@H]1NC(=O)[C@H](Cc2ccc(O)cc2)NC(=O)[C@H](CC(C)C)NC(=O)[C@H](CC(C)C)NC(=O)[C@H](Cc2c[nH]c3ccccc23)NC(=O)[C@H](CS)NC1=O [cyclo-CWLLYL, Cyclo-CWLLYL] (cyclo(CWLLYL))",regrowth,
,Cyclo-CAWCGR,regrowth,
